Data: patent US20210171948A1, “COMPOSITIONS AND METHODS FOR TARGETING GLYPICAN-2 IN THE TREATMENT OF CANCER” (Shepherd Therapeutics, Inc., priority 2019, published 2021)
Like-named read-outs stand apart in the source and are kept apart here. Strand notation (5' to 3'): a small letter for the sugar, then the base; units joined by * are phosphorothioate-linked, units joined directly phosphodiester-linked; [ ] holds rarer units or linkages, { } end groups; capitals alone tell only the bases. d = 2'-deoxy (DNA); r = 2'-OH (RNA)

Columns and labels:
[1] = system: COV362 cells; experiment: Cell viability after siRNA transfection, Cell Titer Glo 2.0 (Example 3); format: cell-based; conditions: COV362 (Ovarian Carcinoma); 96 hour incubation
Procedure: (§1) GPC2 mRNA knockdown and changes in cell viability were assessed in multiple cancer cell lines. Cells were transfected with either a scrambled control siRNA or with GPC2 siRNA sequence 3 or sequence 5 from Table 7 using the RNAiMAX Lipofectamine kit (Invitrogen, Carlsbad, Calif.) as previously described in Example 2, either in 96 well format (for viability assays) or 6 well format (for knockdown assessment). Following a 96 hour incubation period, cells were washed and the viability measurement was assessed using Cell Titer Glo 2.0. Total RNA was isolated from the 6 well plate samples to determine knockdown efficiency.

[2] = system: MCF7 cells; experiment: as above; format: cell-based
Procedure: as §1

[3] = system: GIST-T1 cells; experiment: as above; format: cell-based
Procedure: as §1

[4] = system: RH41 cells; experiment: as above; format: cell-based
Procedure: as §1

[5] = system: IMR32 cells; experiment: as above; format: cell-based
Procedure: as §1

[6] = system: RH30 cells; experiment: as above; format: cell-based
Procedure: as §1

[7] = system: GPC2 mRNA; experiment: GPC2 mRNA knockdown in multiple cancer cell lines, 96 hour (Example 3); format: cell-based, human; conditions: 96 hour incubation; for GPC2 knockdown across the cell lines of Table 8: multiple cancer cell lines
Procedure: siRNAs 1-5 from Table 7 were diluted to 40 nM in OptiMEM media and mixed in a 1:3 ratio (weight by volume) with RNAiMAX. This was incubated for 15 minutes at room temperature and dispensed onto cells plated in a 6 well tissue culture plate. Total RNA samples were collected at either 72 hours post transfection to compare knockdown efficiency (FIG. 2A), or at 24, 48, 72 or 96 hours post transfection to determine the extent of GPC2 mRNA knockdown over time (FIG. 2B). Expression levels of mRNA of GPC2 were measured in these samples using primers specific for GPC2 obtained commercially from Thermofisher (Carlsbad, Calif.) and standard qPCR technique.
as §1

[8] = system: CHP212, SKNAS and SHSY5Y neuroblastoma cell lines; experiment: Cell viability after siRNA transfection, 96 hour (Example 4, FIG. 3B); format: cell-based; conditions: 96 hour incubation (FIG. 3B)
Procedure: GPC2 mRNA knockdown was assessed in multiple neuroblastoma cell lines. Cells were transfected with either a scrambled control siRNA, with GPC2 siRNA sequences 3 or 5 from Table 7, or with siRNA sequences generated by Dharmacon (sequences 12-15 from Table 7) using the RNAiMAX Lipofectamine kit (Invitrogen, Carlsbad, Calif.) as previously described. Following a 96 hour incubation period, total RNA samples were collected to compare knockdown efficiency and viability was measured in parallel plated cells.

[9] = system: CHLA-136 cells; experiment: Carboplatin IC50 in siRNA-transfected cells, Cell Titer Glo 2.0 viability (Example 6); format: cell-based; conditions: for Data Summary: effect of knockdown on sensitivity to carboplatin: CHLA-136; for IC50: CHLA-136 cells transfected with the labelled siRNA, carboplatin added 24 hours post transfection, 72 hour incubation
Procedure: (§2) GPC2 mRNA expression was reduced using the indicated siRNAs and changes in cell viability were assessed in multiple neuroblastoma cell lines. Cells were transfected with either a control siRNA or with GPC2 siRNA sequences 3, 5 or 7 from Table 7 using the RNAiMAX Lipofectamine kit (Invitrogen, Carlsbad, Calif.) as previously described in 96 wells for viability assays. Carboplatin was added at increasing concentrations (0 to 150 uM) to transfected cells at 24 hours post transfection. Following a 72 hour incubation period, viability measurements were made using Cell Titer Glo 2.0.

[10] = system: CHLA-172 cells; experiment: as above; format: cell-based; conditions: for Data Summary: effect of knockdown on sensitivity to carboplatin: CHLA-172; for IC50: CHLA-172 cells transfected with the labelled siRNA, carboplatin added 24 hours post transfection, 72 hour incubation
Procedure: as §2

[11] = system: KELLY cells; experiment: as above; format: cell-based; conditions: for IC50: KELLY cells transfected with the labelled siRNA, carboplatin added 24 hours post transfection, 72 hour incubation
Procedure: as §2

[12] = system: SKNAS cells; experiment: as above; format: cell-based; conditions: for Data Summary: effect of knockdown on sensitivity to carboplatin: SKNAS; for IC50: SKNAS cells transfected with the labelled siRNA, carboplatin added 24 hours post transfection, 72 hour incubation
Procedure: as §2

[13] = system: SKNAS cells; experiment: Doxorubicin IC50 in siRNA-transfected cells, Cell Titer Glo viability (Example 8); format: cell-based; conditions: for Data Summary: effect of knockdown on sensitivity to doxorubicin: SKNAS; for IC50: SKNAS cells transfected with the labelled siRNA, doxorubicin added 24 hours post transfection, 72 hour incubation
Procedure: GPC2 mRNA expression was reduced and changes in cell viability were assessed in multiple neuroblastoma cell lines. Cells were transfected with either a control siRNA or with GPC-2 siRNA sequences 3, 5 or 7 from Table 7 using the RNAiMAX Lipofectamine kit (Invitrogen, Carlsbad, Calif.) as previously described in 96 wells for viability assays. Doxorubicin was added at increasing concentrations (0-5 uM) to transfected cells at 24 hours post transfection. Following a 72 hour incubation period, viability measurements were made using Cell Titer Glo.

[14] = system: GPC2 protein; experiment: GPC2 protein expression by flow cytometry of immunostained cells after siRNA transfection; format: cell-based, human; conditions: for Time point at which GPC2 protein expression started to decrease: CHP212, SH-SY5Y and CHLA90 neuroblastoma cell lines
Procedure: The extent of GPC2 mRNA reduction (knockdown) and corresponding protein level expression changes were assessed in three neuroblastoma cell lines following siRNA knockdown of GPC2. The CHP212 neuroblastoma cell line (FIG. 5A and FIG. 5D), the SH-SY5Y neuroblastoma cell line (FIG. 5B and FIG. 5E) and the CHLA90 neuroblastoma cell line (FIG. 5C and FIG. 5F) were transfected with GPC2 siRNA sequences 5 and 7 from Table 7 and a scrambled control siRNA using the RNAiMAX Lipofectamine kit (Invitrogen, Carlsbad, Calif.) as previously described. Following a 24, 48, or 72 hour incubation period, cells were washed and total RNA was isolated for measuring GPC2 mRNA expression. For protein analysis, cells were fixed, immunostained using an antibody against GPC2 protein, protein expression was measured via flow cytometry. As shown, GPC2 mRNA knockdown was observed beginning at the 24 hr time point and lasted for at least 72 hours. GPC2 protein expression started to decrease at the 48 hr time point.

[15] = system: CHP212 neuroblastoma cell line; experiment: Cell viability after siRNA transfection, 96 hour (Example 4, FIG. 4B); format: cell-based; conditions: 96 hour incubation (FIG. 4B)
Procedure: The extent of GPC2 mRNA reduction was assessed with additional GPC2 siRNA sequences in the CHP212 neuroblastoma cell line. Cells were transfected with either a scrambled control siRNA or with GPC2 siRNA sequences 3 or 5, or with siRNA sequences 6-11 (Sigma) using the RNAiMAX Lipofectamine kit (Invitrogen, Carlsbad, Calif.) as previously described. Following a 96 hour incubation period, total RNA samples were collected and viability was measured in parallel plated cells.

[16] = GIST-T1 (Gastrointestinal Stromal)
[17] = CHLA90 cells, at 72 hours (FIG. 5F)
[18] = CHP212 cells, at 48 and 72 hours (FIG. 5D)
[19] = SH-SY5Y cells, at 48 and 72 hours (FIG. 5E)

Row | Substance | % Viability [1] [%] | % GPC2 knockdown ([7]; CHP212 (Neuroblastoma)) [%] | % GPC2 knockdown ([7]; COV362 (Ovarian Carcinoma)) [%] | % GPC2 knockdown [7, 16] [%] | % GPC2 knockdown ([7]; IMR32 (Neuroblastoma)) [%] | % GPC2 knockdown ([7]; MCF7 (Breast)) [%] | % GPC2 knockdown ([7]; RH30 (Rhabdomyosarcoma)) [%] | % GPC2 knockdown ([7]; RH41 (Rhabdomyosarcoma)) [%] | % GPC2 knockdown ([7]; SKNAS (Neuroblastoma)) [%] | % GPC2 knockdown ([7]; SNU16 (Gastric)) [%] | % GPC2 knockdown ([7]; TC32 (Ewing's Sarcoma)) [%] | % GPC2 knockdown ([7]; TC71 (Ewing's Sarcoma)) [%] | % GPC2 knockdown ([7]; TOV112D (Ovarian Carcinoma)) [%] | GPC2 knockdown across the cell lines of Table 8 [7] | Viability decrease among sequences 3, 5, 12-15 [8] | Data Summary: effect of knockdown on sensitivity to carboplatin [9] | IC50 [9] [µM] | Data Summary: effect of knockdown on sensitivity to carboplatin [10] | IC50 [10] [µM] | IC50 [11] [µM] | other results
1 | GPC2 siRNA 3: siRNA duplex: sense CCUGCUUGGACCUCGAUAA[dT][dT] (SEQ ID NO: 207), anti-sense UUAUCGAGGUCCAAGCAGG[dT][dT] (SEQ ID NO: 208) (sense CCUGCUUGGACCUCGAUAANN; antisense UUAUCGAGGUCCAAGCAGGNN; 3' dTdT overhangs, chemistry not fully specified; listed as Homo sapiens) | 102.76 | 50 | 85 | 61 | 36 | 72 | 78 | 37 | 25 | 53 | 69 | 42 | 89 | GPC2 knockdown was observed in each cell line | greater viability decrease | not increase sensitivity | 47 | increases sensitivity to | 100 | 12 | % Viability [2]: 79.67%; % Viability [3]: 70.87%; % Viability [4]: 131.49%; % Viability [5]: 89.05%; % Viability [6]: 79.02%; Data Summary: effect of knockdown on sensitivity to carboplatin [12]: increases sensitivity to; IC50 [12]: 40 µM; Data Summary: effect of knockdown on sensitivity to doxorubicin [13]: increases sensitivity to; IC50 [13]: 40 nM
2 | GPC2 siRNA 5: siRNA duplex: sense CUCAGUAGCCCAGCACUCU[dT][dT] (SEQ ID NO: 211), anti-sense AGAGUGCUGGGCUACUGAG[dT][dT] (SEQ ID NO: 212) (sense CUCAGUAGCCCAGCACUCUTT; antisense AGAGUGCUGGGCUACUGAGTT; sugars from the 5' end r19 d2, backbone not given here; listed as Homo sapiens) | 94.27 | 65 | 79 | 76 | 25 | 82 | 83 | 60 | 44 | 25 | 57 | 33 | 78 | GPC2 knockdown was observed in each cell line | greater viability decrease | not increase sensitivity | 36 | increases sensitivity to | 100 | 9 | GPC2 protein expression (Mean Fluorescence (FL1) Intensity) [14, 17]: Reduced GPC2 protein expression; Time point at which GPC2 protein expression started to decrease [14]: 48 h; GPC2 protein expression (Mean Fluorescence (FL1) Intensity) [14, 18]: Reduced GPC2 protein expression; GPC2 protein expression (Mean Fluorescence (FL1) Intensity) [14, 19]: Reduced GPC2 protein expression; % Viability ([2]; MCF7 (Breast), 96 hour incubation): 67.11%; % Viability ([3]; GIST-T1 (Gastrointestinal Stromal), 96 hour incubation): 40.13%; % Viability ([4]; RH41 (Rhabdomyosarcoma), 96 hour incubation): 31.32%; % Viability ([5]; IMR32 (Neuroblastoma), 96 hour incubation): 63.62%; % Viability ([6]; RH30 (Rhabdomyosarcoma), 96 hour incubation): 46.03%; Data Summary: effect of knockdown on sensitivity to carboplatin ([11]; KELLY): KD with sequence 5 increases; Data Summary: effect of knockdown on sensitivity to carboplatin [12]: increases sensitivity to; IC50 [12]: 15.3 µM; Data Summary: effect of knockdown on sensitivity to doxorubicin [13]: increases sensitivity to; IC50 [13]: 20 nM; Viability decrease among sequences 3, 5, 6-11 [15]: greater viability decrease
3 | GPC2 siRNA 7: siRNA duplex: sense CUCCUUUCUGGUUCACACA[dT][dT] (SEQ ID NO: 215), anti-sense UGUGUGAACCAGAAAGGAG[dT][dT] (SEQ ID NO: 216) (sense rCrUrCrCrUrUrUrCrUrGrGrUrUrCrArCrArCrAdTdT; antisense rUrGrUrGrUrGrArArCrCrArGrArArArGrGrArGdTdT; listed as Homo sapiens) | – | – | – | – | – | – | – | – | – | – | – | – | – | – | – | – | – | – | – | – | GPC2 protein expression (Mean Fluorescence (FL1) Intensity) [14, 17]: Reduced GPC2 protein expression; Time point at which GPC2 protein expression started to decrease [14]: 48 h; GPC2 protein expression (Mean Fluorescence (FL1) Intensity) [14, 18]: Reduced GPC2 protein expression; GPC2 protein expression (Mean Fluorescence (FL1) Intensity) [14, 19]: Reduced GPC2 protein expression; Viability decrease among sequences 3, 5, 6-11 [15]: greater viability decrease
